target: T1, human PTH1 receptor (Homo sapiens, UniProt Q03431); assay: In vitro cAMP signal activity in HKRK-B7 cells (LLC-PK1 cells overexpressing the human PTH1 receptor); assay type: cell-based; conditions: HKRK-B7 cells; compound at 1×10^−3 M; cAMP produced as percentage of that produced by hPTH(1-34) at 100 nM
T1 sequence (Q03431 27-593): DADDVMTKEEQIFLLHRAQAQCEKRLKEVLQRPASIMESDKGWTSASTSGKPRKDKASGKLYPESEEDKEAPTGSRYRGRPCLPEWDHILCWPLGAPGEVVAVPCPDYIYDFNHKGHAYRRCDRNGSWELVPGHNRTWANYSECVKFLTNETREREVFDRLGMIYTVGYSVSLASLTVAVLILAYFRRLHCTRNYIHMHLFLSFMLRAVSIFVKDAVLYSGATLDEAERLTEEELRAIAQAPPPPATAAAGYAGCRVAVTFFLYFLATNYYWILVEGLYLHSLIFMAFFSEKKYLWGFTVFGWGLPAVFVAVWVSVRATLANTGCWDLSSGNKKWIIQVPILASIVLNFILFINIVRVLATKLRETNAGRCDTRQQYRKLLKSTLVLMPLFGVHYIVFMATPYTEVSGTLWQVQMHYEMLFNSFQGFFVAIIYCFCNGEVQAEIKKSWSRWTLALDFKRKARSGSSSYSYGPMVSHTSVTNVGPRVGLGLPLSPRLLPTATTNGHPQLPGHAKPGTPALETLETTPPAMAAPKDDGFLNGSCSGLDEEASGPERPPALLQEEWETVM

cAMP production activity (%)	SMILES
104	Cc1cc(N2C(=O)NC(C)C2=O)cc(C)c1/C=C/S(=O)(=O)N1CCC2(CC1)N=C(C1CCC(C)CC1)NC2=O (stereo not shown) [Compound 582, 3-(3,5-dimethyl-4-{(E)-2-[2-(4-methyl-cyclohexyl)-4-oxo-1,3,8-triaza-spiro[4.5]dec-1-ene-8-sulfonyl]-vinyl}-phenyl)-5-methyl-imidazolidine-2,4-dione]
85	Cc1cc(/C=C/S(=O)(=O)N2CCC3(CC2)N=C(C2CCC(C)CC2)NC3=O)cc(C)c1N1C(=O)CNC1=O (stereo not shown) [Compound 583, 3-(2,6-dimethyl-4-{(E)-2-[2-(4-methyl-cyclohexyl)-4-oxo-1,3,8-triaza-spiro[4.5]dec-1-ene-8-sulfonyl]-vinyl}-phenyl)-imidazolidine-2,4-dione]
24	CC(=O)N(C)c1c(C)cc(/C=C/S(=O)(=O)N2CCC3(CC2)N=C(C2CCC(C)CC2)NC3=O)cc1C (stereo not shown) [Compound 584, N-(2,6-dimethyl-4-{(E)-2-[2-(4-methyl-cyclohexyl)-4-oxo-1,3,8-triaza-spiro[4.5]dec-1-ene-8-sulfonyl]-vinyl}-phenyl)-N-methyl-acetamide]
39	COc1cccc(/C=C/S(=O)(=O)N2CCC3(CC2)N=C([C@H]2CC[C@H](C)CC2)NC3=O)c1C [Compound 585, 8-[(E)-2-(3-methoxy-2-methyl-phenyl)-ethenesulfonyl]-2-(4-methyl-cyclohexyl)-1,3,8-triaza-spiro[4.5]dec-1-en-4-one]
82	Cc1cc(N(C)c2ncc[nH]2)cc(C)c1/C=C/S(=O)(=O)N1CCC2(CC1)N=C(C1CCC(C)CC1)NC2=O (stereo not shown) [Compound 586, 8-((E)-2-{4-[(1H-imidazol-2-yl)-methyl-amino]-2,6-dimethyl-phenyl}-ethenesulfonyl)-2-(4-methyl-cyclohexyl)-1,3,8-triaza-spiro[4.5]dec-1-en-4-one]

Second part, the compound before the results:

SMILES	cAMP production activity (%)
Cc1cc(N2COCC2=O)ccc1/C=C/S(=O)(=O)N1CCC2(CC1)N=C(C1CCC(C)CC1)NC2=O (stereo not shown) [Compound 577, 2-(4-methyl-cyclohexyl)-8-{(E)-2-[2-methyl-4-(4-oxo-oxazolidin-3-yl)-phenyl]-ethenesulfonyl}-1,3,8-triaza-spiro[4.5]dec-1-en-4-one]	74
Cc1cc(N2CCN(C(=O)OC(C)(C)C)CC2=O)ccc1/C=C/S(=O)(=O)N1CCC2(CC1)N=C(C1CCC(C)CC1)NC2=O (stereo not shown) [Compound 578, 4-(3-methyl-4-{(E)-2-[2-(4-methyl-cyclohexyl)-4-oxo-1,3,8-triaza-spiro[4.5]dec-1-ene-8-sulfonyl]-vinyl}-phenyl)-3-oxo-piperazine-1-carboxylic acid tert-butyl ester]	13
Cc1cc(N2C(=O)OCC2C)ccc1/C=C/S(=O)(=O)N1CCC2(CC1)N=C(C1CCC(C)CC1)NC2=O (stereo not shown) [Compound 579, 2-(4-methyl-cyclohexyl)-8-{(E)-2-[2-methyl-4-(4-methyl-2-oxo-oxazolidin-3-yl)-phenyl]-ethenesulfonyl}-1,3,8-triaza-spiro[4.5]dec-1-en-4-one]	55
Cc1cc(N2OCCC2=O)ccc1/C=C/S(=O)(=O)N1CCC2(CC1)N=C(C1CCC(C)CC1)NC2=O (stereo not shown) [Compound 580, 2-(4-methyl-cyclohexyl)-8-{(E)-2-[2-methyl-4-(3-oxo-isoxazolidin-2-yl)-phenyl]-ethenesulfonyl}-1,3,8-triaza-spiro[4.5]dec-1-en-4-one]	25
Cc1cc(N2C(=O)CNC2=O)c(C)cc1/C=C/S(=O)(=O)N1CCC2(CC1)N=C(C1CCC(C)CC1)NC2=O (stereo not shown) [Compound 581, 3-(2,5-dimethyl-4-{(E)-2-[2-(4-methyl-cyclohexyl)-4-oxo-1,3,8-triaza-spiro[4.5]dec-1-ene-8-sulfonyl]-vinyl}-phenyl)-imidazolidine-2,4-dione]	75

Source: patent publication US9169254B2, “Spiroimidazolone derivative” (Chugai Seiyaku Kabushiki Kaisha, priority 2009, dated 2015)
